Literature values as cited in patent US9445940B2, “System and method for inducing hypothermia with control and determination of catheter pressure” (Zoll Circulation, Inc., priority 2003, dated 2016).

Tested on: shivering threshold
Conditions: stated as believed, no experiment by the applicant

CCOC(=O)C1(c2ccccc2)CCN(C)CC1 [Meperidine]
decrease of shivering threshold relative to vasoconstriction threshold: twice as much as the vasoconstriction threshold
